Measurements from patent publication US4308251A, “Controlled release formulations of orally-active medicaments” (Boots Pharmaceuticals, Inc., priority 1980, dated 1981).

Columns and labels:
[1] = test system: patients with pain (chronic bursitis, knee injury); assay type: in vivo, human
Excerpt: patient two is a housewife who suffered a painful right shoulder for two years. Consultants believed this condition was a result of chronic bursitis.
patient three is a person who is employed full time in an accounting department of a small company. […] While skating they fell, causing a partial tear of the medial collateral ligament and medial meniscus of the left knee. Support wrappings and acetaminophen were tried. […] This dosage regimen was maintained throughout the patient's convalescence.
patient one sustained a traumatic injury to the medial portion of their right knee during a basketball game.

[2] = test system: patients taking aspirin; settings: background statement; cited from earlier work
[3] = Patient No. 1, aspirin as regularly prescribed

Question: For `CC(=O)Nc1ccc(O)cc1` [acetaminophen], which pain relief ([1]; Patient No. 2, regular acetaminophen) is on record?
Answer: The pain relief was “only partial and temporary”.

Question: For `CC(=O)Oc1ccccc1C(=O)O` [aspirin, acetylsalicylic acid], which “patients considered treatment failures because of side effects” value [2] is on record?
Answer: The value was “Approximately sixty”.

Question: What about the “effect on shoulder pain” value [1, 3] of the same compound?
Answer: Its value is “ineffective”.

Question: And the side effects [1, 3]?
Answer: Its side effects is “epigastric discomfort”.
